One assay has as its target T1, human Nav1.7 channels (Homo sapiens, UniProt Q15858).
T1 construct: host or cells: HEK293
Kind of assay: hNav1.7 channel assay, whole cell patch clamp, two-pulse protocol. It counts as cell-based. Particulars: TP2 (inactivated phase inhibition), HEK293 cells stably expressing human Nav1.7, read-out: Inhibition activity: percent inhibition on the inactivated state of hNav1.7. The text has this:
Whole cell patch clamp technique was used to investigate the inhibitory effects of the compound of Examples on human Nav1.7 channels, stably expressed in HEK293 cells. Human Nav1.7 recombinant cell line (CYL3011-precisION) was purchased from Eurofins.
Two-pulse protocol was used every 10 seconds to assess the state-dependent inhibition by Examples. From the holding potential of −90 mV, pre-pulse (200 ms at −120 mV) was followed by test pulse1 ([…]), then test pulse2 (TP2: 20 ms at 0 mV) was evoked after inter-pulse (20 ms at −100 mV).
Peak current amplitudes were measured for test pulses TP1 (resting phase inhibition) and TP2 (inactivated phase inhibition). The following solutions were used for screening assay: External (mM): 145 NaCl, 1 MgCl2, 1.8 CaCl2, 10 Hepes, 5 Glucose, pH 7.4, 300 mOsm; Internal (mM): 120 CsF, 10 NaCl, 10 EGTA, 10 HEPES, pH 7.2, 290 mOsm.
The inhibition on the inactivated state of hNav1.7 was calculated as: % inhibition (inactivation state)=(1−(ITP2, TA/ITP2, Control)×100%, where ITP2 (the inward peak Na+ currents), Control and ITP2, TA were elicited by the TP2 in control (vehicle only) and in the presence of a test article (TA) indicating Examples, respectively.
In general terms: In patch-clamp work, channel activity is measured electrically.

The subject of assay [1] is Rat Spinal Nerve Ligation Model. Kind of assay: Rat Spinal Nerve Ligation (SNL, Chung) model, mechanical allodynia by von Frey filaments. The format is in vivo. Particulars: 30 mg/kg, p.o., PWT two hours after the treatment. As for the experimental part:
Rat Spinal Nerve Ligation Model
Analgesic efficacy was examined through the Spinal Nerve Ligation (SNL) model, also known as the Chung model (Kim and Chung, 1992). SNL model is one of the most frequently used animal models for the assessment of neuropathic pain behavior.
Briefly, the lumbar 5 spinal nerve is ligated with silk suture distal to the dorsal root ganglion. After two weeks of recovery, mechanical allodynia in the affected paw of animals was evaluated using von Frey filaments. Using the Dixons Up-Down method (Chaplan et al, 1994), a pre-drug baseline was taken with allodynia defined as a paw withdrawal threshold (PWT)<4 g. Test compounds (at 30 mg/kg) or vehicle were then orally administered, and PWT was determined two hours after the treatment. Statistical mean values of PWT for vehicle control and drug treatment groups were calculated, and the percent of maximum possible effect (% MPE) value was determined according to the following formula; % MPE=[(post-drug PWT−pre-drug PWT)/(cutoff PWT−pre-drug PWT)]×100.

T1 sequence (Q15858 whole entry): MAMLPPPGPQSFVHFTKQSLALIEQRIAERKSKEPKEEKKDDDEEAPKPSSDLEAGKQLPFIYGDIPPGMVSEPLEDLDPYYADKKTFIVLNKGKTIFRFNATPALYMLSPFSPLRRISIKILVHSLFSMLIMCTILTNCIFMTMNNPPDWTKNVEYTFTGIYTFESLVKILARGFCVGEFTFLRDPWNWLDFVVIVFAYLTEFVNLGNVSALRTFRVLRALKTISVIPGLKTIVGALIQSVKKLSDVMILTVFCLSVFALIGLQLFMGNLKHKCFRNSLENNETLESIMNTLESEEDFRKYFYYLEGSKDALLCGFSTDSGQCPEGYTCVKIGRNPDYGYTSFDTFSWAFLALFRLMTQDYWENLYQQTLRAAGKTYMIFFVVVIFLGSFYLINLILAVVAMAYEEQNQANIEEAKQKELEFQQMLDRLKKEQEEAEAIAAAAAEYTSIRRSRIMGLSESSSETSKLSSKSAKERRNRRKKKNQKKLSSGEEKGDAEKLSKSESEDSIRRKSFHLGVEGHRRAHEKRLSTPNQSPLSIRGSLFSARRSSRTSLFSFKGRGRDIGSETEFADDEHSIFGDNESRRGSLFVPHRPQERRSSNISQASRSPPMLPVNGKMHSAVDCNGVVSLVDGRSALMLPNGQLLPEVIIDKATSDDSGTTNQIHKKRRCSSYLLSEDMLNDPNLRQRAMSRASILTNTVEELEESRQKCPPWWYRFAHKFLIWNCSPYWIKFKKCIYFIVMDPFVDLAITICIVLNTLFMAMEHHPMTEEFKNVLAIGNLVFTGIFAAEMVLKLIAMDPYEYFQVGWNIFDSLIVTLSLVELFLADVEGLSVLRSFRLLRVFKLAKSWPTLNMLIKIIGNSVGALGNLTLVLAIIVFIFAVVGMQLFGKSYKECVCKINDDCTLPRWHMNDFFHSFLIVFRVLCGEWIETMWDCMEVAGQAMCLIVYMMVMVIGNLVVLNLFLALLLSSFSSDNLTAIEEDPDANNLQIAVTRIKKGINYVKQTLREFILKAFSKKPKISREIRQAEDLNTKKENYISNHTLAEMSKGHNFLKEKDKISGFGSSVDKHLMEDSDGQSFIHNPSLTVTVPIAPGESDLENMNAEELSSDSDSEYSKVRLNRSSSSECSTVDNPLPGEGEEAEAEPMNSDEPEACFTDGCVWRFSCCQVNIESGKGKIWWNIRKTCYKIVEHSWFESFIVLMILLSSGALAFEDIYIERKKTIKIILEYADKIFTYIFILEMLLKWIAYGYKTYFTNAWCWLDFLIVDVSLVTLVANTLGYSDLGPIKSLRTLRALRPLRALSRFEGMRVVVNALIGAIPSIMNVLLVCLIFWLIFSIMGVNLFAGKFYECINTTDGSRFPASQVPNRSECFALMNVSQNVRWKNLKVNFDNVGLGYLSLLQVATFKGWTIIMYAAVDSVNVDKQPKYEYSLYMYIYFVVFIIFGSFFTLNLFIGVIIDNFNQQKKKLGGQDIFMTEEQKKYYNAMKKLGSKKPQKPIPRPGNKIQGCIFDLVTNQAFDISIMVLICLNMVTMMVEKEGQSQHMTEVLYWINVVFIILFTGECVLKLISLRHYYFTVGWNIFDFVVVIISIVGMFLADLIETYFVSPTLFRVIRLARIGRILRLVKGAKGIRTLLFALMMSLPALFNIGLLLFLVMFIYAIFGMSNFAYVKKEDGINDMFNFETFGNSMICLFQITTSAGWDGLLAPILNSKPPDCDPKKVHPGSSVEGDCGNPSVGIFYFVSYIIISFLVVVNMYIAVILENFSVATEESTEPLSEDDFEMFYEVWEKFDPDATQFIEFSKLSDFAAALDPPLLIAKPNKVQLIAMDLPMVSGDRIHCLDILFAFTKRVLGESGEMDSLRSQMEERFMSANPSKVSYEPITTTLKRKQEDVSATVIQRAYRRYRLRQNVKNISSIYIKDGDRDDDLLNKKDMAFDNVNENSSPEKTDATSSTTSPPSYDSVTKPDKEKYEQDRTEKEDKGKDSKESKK

Broadly, the inhibition is the relative decrease from the control value, in per cent. Take `O=C(NCc1cccc[n+]1[O-])c1cccc(-c2ccc(Cl)cc2)c1` [Example 2, 3-(4-chlorophenyl)-N-[(1-oxidopyridin-1-ium-2-yl)methyl]benzamide]: on human Nav1.7 channels, the inhibition at 10 µM was 70 to 100%. In assay [1], the “in vivo efficacy: % MPE” value is on record as “+++ (+++: 70-100%)”.
On the same counts, the results for `O=C(NCc1cccc[n+]1[O-])c1cccc(-c2ccc(F)c(F)c2)c1` [Example 19, 3-(3,4-difluorophenyl)-N-[(1-oxidopyridin-1-ium-2-yl)methyl]benzamide] are 40 to 70% and “++ (++: 40-70%,)”.
On the same counts, the results for `Cc1ccc(-c2cccc(C(=O)NCc3cccc[n+]3[O-])c2)cc1` [Example 14, N-[(1-oxidopyridin-1-ium-2-yl)methyl]-3-(p-tolyl)benzamide] are 40 to 70% and “++ (++: 40-70%,)”.

The record behind these values is US20250333383A1, “N-OXIDE COMPOUNDS AND USE THEREOF” (SK BIOPHARMACEUTICALS CO., LTD., priority 2022, published 2025).
